The source made the active and inactive calls.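 How the source made its calls: active means percent growth at or below 50%, meaning growth inhibited by at least half; inactive means percent growth above 50%.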
Key:
Assay in all cases: cancer cell panel antiproliferative activity – NCI60 one-dose, 10 µM, STAT3 inhibitor project, profiling panel (AID 651573)
[1] = tested on: Non-Small Cell Lung Cancer A549/ATCC; conditions: SRB absorbance, 48 h, at 10 µM, active compounds read low
Renal Cancer 786-0 = conditions: SRB absorbance, 48 h, at 10 µM, active compounds read low
Leukemia RPMI-8226 = conditions: SRB absorbance, 48 h, at 10 µM, active compounds read low
Breast Cancer BT-549 = conditions: SRB absorbance, 48 h, at 10 µM, active compounds read low, 0 = no net growth, negative = cell kill
Colon Cancer SW-620 = conditions: SRB absorbance, 48 h, at 10 µM, active compounds read low, 0 = no net growth, negative = cell kill
[2] = tested on: Non-Small Cell Lung Cancer NCI-H226; conditions: SRB absorbance, 48 h, at 10 µM, active compounds read low
Renal Cancer A498 = conditions: SRB absorbance, 48 h, at 10 µM, active compounds read low
Renal Cancer TK-10 = conditions: SRB absorbance, 48 h, at 10 µM, active compounds read low
Renal Cancer RXF 393 = conditions: SRB absorbance, 48 h, at 10 µM, active compounds read low
Leukemia SR = conditions: SRB absorbance, 48 h, at 10 µM, active compounds read low
Melanoma SK-MEL-28 = conditions: SRB absorbance, 48 h, at 10 µM, active compounds read low
CNS Cancer SF-295 = conditions: SRB absorbance, 48 h, at 10 µM, active compounds read low
Melanoma SK-MEL-5 = conditions: SRB absorbance, 48 h, at 10 µM, active compounds read low
Colon Cancer HCT-116 = conditions: SRB absorbance, 48 h, at 10 µM, active compounds read low
Ovarian Cancer SK-OV-3 = conditions: SRB absorbance, 48 h, at 10 µM, active compounds read low
Ovarian Cancer OVCAR-8 = conditions: SRB absorbance, 48 h, at 10 µM, active compounds read low
Melanoma MALME-3M = conditions: SRB absorbance, 48 h, at 10 µM, active compounds read low
CNS Cancer U251 = conditions: SRB absorbance, 48 h, at 10 µM, active compounds read low
[3] = tested on: Non-Small Cell Lung Cancer NCI-H522; conditions: SRB absorbance, 48 h, at 10 µM, active compounds read low
Ovarian Cancer OVCAR-3 = conditions: SRB absorbance, 48 h, at 10 µM, active compounds read low
Leukemia K-562 = conditions: SRB absorbance, 48 h, at 10 µM, active compounds read low
Prostate Cancer PC-3 = conditions: SRB absorbance, 48 h, at 10 µM, active compounds read low
[4] = tested on: Non-Small Cell Lung Cancer EKVX; conditions: SRB absorbance, 48 h, at 10 µM, active compounds read low
CNS Cancer SNB-19 = conditions: SRB absorbance, 48 h, at 10 µM, active compounds read low
Renal Cancer CAKI-1 = conditions: SRB absorbance, 48 h, at 10 µM, active compounds read low
Breast Cancer MDA-MB-468 = conditions: SRB absorbance, 48 h, at 10 µM, active compounds read low
[5] = tested on: Non-Small Cell Lung Cancer HOP-62; conditions: SRB absorbance, 48 h, at 10 µM, active compounds read low, 0 = no net growth, negative = cell kill
[6] = tested on: Non-Small Cell Lung Cancer NCI-H23; conditions: SRB absorbance, 48 h, at 10 µM, active compounds read low
Melanoma SK-MEL-2 = conditions: SRB absorbance, 48 h, at 10 µM, active compounds read low
Colon Cancer COLO 205 = conditions: SRB absorbance, 48 h, at 10 µM, active compounds read low, 0 = no net growth, negative = cell kill
CNS Cancer SF-268 = conditions: SRB absorbance, 48 h, at 10 µM, active compounds read low
Melanoma M14 = conditions: SRB absorbance, 48 h, at 10 µM, active compounds read low
Melanoma UACC-62 = conditions: SRB absorbance, 48 h, at 10 µM, active compounds read low, 0 = no net growth, negative = cell kill
[7] = tested on: Non-Small Cell Lung Cancer NCI-H322M; conditions: SRB absorbance, 48 h, at 10 µM, active compounds read low
Renal Cancer SN12C = conditions: SRB absorbance, 48 h, at 10 µM, active compounds read low
CNS Cancer SNB-75 = conditions: SRB absorbance, 48 h, at 10 µM, active compounds read low
[8] = tested on: Non-Small Cell Lung Cancer NCI-H460; conditions: SRB absorbance, 48 h, at 10 µM, active compounds read low
[9] = tested on: Non-Small Cell Lung Cancer HOP-92; conditions: SRB absorbance, 48 h, at 10 µM, active compounds read low, 0 = no net growth, negative = cell kill
Colon Cancer KM12 = conditions: SRB absorbance, 48 h, at 10 µM, active compounds read low
Melanoma UACC-257 = conditions: SRB absorbance, 48 h, at 10 µM, active compounds read low
Breast Cancer HS 578T = conditions: SRB absorbance, 48 h, at 10 µM, active compounds read low
[10] = tested on: Breast Cancer MDA-MB-231/ATCC; conditions: SRB absorbance, 48 h, at 10 µM, active compounds read low
Melanoma MDA-MB-435 = conditions: SRB absorbance, 48 h, at 10 µM, active compounds read low
[11] = tested on: Ovarian Cancer NCI/ADR-RES; conditions: SRB absorbance, 48 h, at 10 µM, active compounds read low
Ovarian Cancer OVCAR-4 = conditions: SRB absorbance, 48 h, at 10 µM, active compounds read low
Leukemia CCRF-CEM = conditions: SRB absorbance, 48 h, at 10 µM, active compounds read low
Breast Cancer MCF7 = conditions: SRB absorbance, 48 h, at 10 µM, active compounds read low
Colon Cancer HCC-2998 = conditions: SRB absorbance, 48 h, at 10 µM, active compounds read low
Melanoma LOX IMVI = conditions: SRB absorbance, 48 h, at 10 µM, active compounds read low
Leukemia MOLT-4 = conditions: SRB absorbance, 48 h, at 10 µM, active compounds read low
Colon Cancer HCT-15 = conditions: SRB absorbance, 48 h, at 10 µM, active compounds read low
Prostate Cancer DU-145 = conditions: SRB absorbance, 48 h, at 10 µM, active compounds read low

Measured: percent growth

COc1ccc(CC2CCN(c3ncnc4sccc34)CC2)cc1
inactive: [1] 64.2% | Renal Cancer 786-0 65.6% | Breast Cancer BT-549 56% | Colon Cancer SW-620 86.9% | [2] 82% | Renal Cancer A498 96.1% | Renal Cancer TK-10 80.4% | Renal Cancer RXF 393 108% | Leukemia SR 72.5% | Melanoma SK-MEL-28 108% | CNS Cancer SF-295 59% | Ovarian Cancer SK-OV-3 87.5% | Ovarian Cancer OVCAR-8 65.4% | Melanoma MALME-3M 127% | CNS Cancer U251 73.2% | Ovarian Cancer OVCAR-3 94.1% | Prostate Cancer PC-3 81.5% | CNS Cancer SNB-19 69.3% | Renal Cancer CAKI-1 66.3% | [5] 93.6% | Melanoma SK-MEL-2 71.3% | Colon Cancer COLO 205 95% | CNS Cancer SF-268 93.2% | Melanoma M14 87.5% | Melanoma UACC-62 54.8% | [7] 66.6% | Renal Cancer SN12C 72.9% | CNS Cancer SNB-75 100% | [8] 62.4% | [9] 75.4% | Colon Cancer KM12 91.7% | Melanoma UACC-257 67.2% | Breast Cancer HS 578T 90.1% | [10] 79.8% | Melanoma MDA-MB-435 66.9% | Ovarian Cancer OVCAR-4 50.7% | Leukemia CCRF-CEM 51% | Breast Cancer MCF7 55.5% | Colon Cancer HCC-2998 88.5% | Leukemia MOLT-4 66% | Colon Cancer HCT-15 73.7% | Prostate Cancer DU-145 99.4%
active: Leukemia RPMI-8226 25.4% | Melanoma SK-MEL-5 31.8% | Colon Cancer HCT-116 34.9% | [3] 48.5% | Leukemia K-562 41.1% | [4] 39.9% | Breast Cancer MDA-MB-468 21.3% | [6] 46.8% | [11] 43.4% | Melanoma LOX IMVI 34.4%
